Patent publication US20130210901A1, “METHOD OF TREATING NEURODEGENERATIVE DISEASES” (Yissum Research Development Company of the Hebrew …, priority 2010, published 2013)
Read-outs that look alike come from different tables or passages of the source.

Key:
hnRNP A/B = hnRNP A/B expression in primary neuronal cultures incubated with cholinergic agonist; type: cell-based, mouse; conditions: 10 μM, 48 hours
Protocol: Primary mixed cortical cultures: Primary mouse cultures of neurons and glia were produced from E16 embryos. Pregnant mice were anesthetized with isoflurane and sacrificed by cervical dislocation. The uterus was removed and placed on ice. After 5 minutes the heads were dissected under binocular and cortices were removed, placed in cold DMEM, and triturated with a scalpel and up and down pippeting. The medium was replaced with neurobasal medium supplemented with 1:50 B27, 2 mM L-Glutamine (Invitrogen, Grand Island, N.Y.), 50 U penicillin and 50 μg/ml streptomycin (Biological Industries, Beit-haemek, Israel), cells were counted and plated in 12 or 24-well plated pre-treated with 10 μg/ml poly-lysine (Sigma, St. Louis). For confocal microscopy cells were plated on glass cover slips similarly treated.
Immunohistochemistry and immunofluorescence: Paraffin slides were rehydrated by washing in xylene and serial dilutions of ethanol in water. Heat-induced antigen retrieval involved boiling slides in 10 mM pH 6 citrate buffer for 10 minutes. Hydrogen peroxide methanol quench was performed for slides later developed with 3,3′-Diaminobenzidine tetrahydrochloride (DAB). […]

miRNA-132 = assay: miRNA expression in temporal cortex 48 hours after muscarinic agonist injection (RT-PCR); type: in vivo, mouse; conditions: 48 hours after injections
Protocol: (§1) β-actin and GAPDH were used as reference transcripts. Annealing temperature was 60° C. for all primers. Serial dilution of samples served to evaluate primers efficiency and the appropriate cDNA concentration that yields linear changes. -RT controls verified lack of genomic DNA. miRNA quantification using The TaqMan miRNA Assays (Applied Biosystems) was conducted in two-step RT-PCR kit according to the manufacturer's instructions.

miRNA-211 = assay: as above; type: in vivo, mouse; conditions: 48 hours after injections
Protocol: as §1

miR-211 = assay: Antisense blockage of miR-211 in cultured N9 cells, hnRNP A/B levels; type: cell-based

**Q.** How did the “expression of hnRNP A/B” value (hnRNP A/B) turn out when `C[N+](C)(C)CCOC(N)=O` [carbachol] was run?
**A.** increased

**Q.** `CC[C@@H]1C(=O)OC[C@@H]1Cc1cncn1C` [muscarinic agonist, pilocarpine] was tested. Which “levels of miRNA-132” value (miRNA-132) did it give?
**A.** increased

**Q.** And the “levels of miRNA-211” value (miRNA-211)?
**A.** reduced

**Q.** How did the “hnRNP A/B levels” value (miR-211) turn out when “Antisense oligonucleotides to miR-211: locked nucleic acid oligonucleotide complementary to miR-211; miR211 antagonist e.g. SEQ ID NO: 87 (antisense AGGCGAAGGATGACAAAGGGAA; locked nucleic acid oligonucleotide, pattern not given here)” was run?
**A.** increased

**Q.** What about the “hnRNP A/B levels” value (miR-211; listed as locked nucleic acid complementary oligonucleotide) of the same compound?
**A.** increases
